System: HCV replicon (Renilla luciferase) in HUH-7 cells
Assay: HCV replicon luciferase reporter assay
Type: cell-based, HCV strain 1b
Details: Huh-7, 96 h, 4 days
Text: An HCV replicon whole cell system was established as described by Lohmann V, Korner F, Koch J, Herian U, Theilmann L, Bartenschlager R., Science 285(5424):110-3 (1999). This system enabled us to evaluate the effects of our HCV Protease compounds on HCV RNA replication. Briefly, using the HCV strain 1b sequence described in the Lohmann paper (Assession number: AJ238799), an HCV cDNA was synthesized by Operon Technologies, Inc. (Alameda, Calif.), and the full-length replicon was then assembled in plasmid pGem9zf(+) (Promega, Madison, Wis.) using standard molecular biology techniques. […]
As a secondary assay, EC50 determinations from the replicon FRET assay were confirmed in a replicon luciferase reporter assay. […] Following 4 days in a 37° C./5% CO2 incubator, cells were analyzed for Renilla Luciferase activity using the Promega Dual-Glo Luciferase Assay System. […] Plates were read on a Packard TopCount NXT using a luminescence program.
The percentage inhibition was calculated using the formula below: % control=average luciferase signal in experimental wells (+compound)
average luciferase signal in DMSO control wells (−compound) The values were graphed and analyzed using XLfit to obtain the EC50 value.

## COc1c(O[C@@H]2C[C@H]3C(=O)N[C@]4(C(=O)NS(=O)(=O)C5CC5)C[C@H]4/C=C\CCCCC[C@H](NC(=O)OC(C)(C)C)C(=O)N3C2)ccc2c(Cl)nccc12 [Compound 3]
  EC50: 5.5 nM
